According to patent publication US20240197761A1, “FUCOSYLATION AND IMMUNE MODULATION IN CANCER” (H. LEE MOFFITT CANCER CENTER AND RESEARCH INSTITUTE, INC., priority 2021, published 2024):

Legend:
[1] = test system: SW1 tumors (shNT, shH2K1, shEB1, EB1 WT or N46G); experiment: H2K1/EB1 knockdown and glyco-fucomutant EB1 reconstitution mouse model; type: in vivo, C3H/HeN mice
Text: All animals were housed at the Vincent A. Stabile Research building animal facility at H. Lee Moffitt Cancer Center & Research Institute, which is fully accredited by the Association for Assessment and Accreditation of Laboratory Animal Care International (AAALAC, #434), and are managed in accordance with the Guide for the Care and Use of Laboratory Animals (“The Guide”), the Animal Welfare Regulations Title 9 Code of Federal Regulations Subchapter A, “Animal Welfare”, Parts 1-3 (AWR), the Public Health Service Policy on Humane Care and Use of Laboratory Animals (PHS Policy), and by the USF Institutional Animal Care and Use Committee's Principles and Procedures of Animal Care and Use (IACUC Principles). The experiments and protocols detailed in this study received institutional approval by the Moffitt IACUC (RIS00001625). Four-to-six-week-old female C3H/HeN and male C57BL6 mice were purchased from Charles Rivers Laboratories for the indicated experiments. Four-to-six-week-old male NSG mice from the Lau laboratory breeding colony were used for the indicated experiments. Power calculations were used to determine mouse cohort sizes to detect significant changes in tumor sizes. In general, 10 mice per indicated cohort to accommodate for incidental loss of mice due to issues beyond our control (e.g., incidental tumor ulceration that required exclusion from the study). Mouse tumor volumes were measured using length, width and depth divided by 2. At each experimental endpoint, mice were humanely euthanized using CO2 inhalation in accordance to the American Veterinary Medical Association guidelines. […] For all mouse models, 1×10^6 melanoma cells were injected subcutaneously in the right hind flanks of each mouse. Between 7-14 days, when the tumor volumes reached ˜150 mm^3, the mice were either supplemented with or without 100 mM L-fucose (Biosynth (Oak Terrace, IL)) via drinking water, which was provided ad libitum. When the tumors reached ˜2 cm^3, the animals were sacrificed, and the tumors either processed for flow cytometric profiling or for histological analysis as indicated. […]

dendritic cells = experiment: TLR profiles of bone marrow-derived dendritic cells (RT-qPCR); type: cell-based, Balb/C mice; details: 250 uM L-fucose, 96 hours, then LPS 24 hours
Procedure: Bone marrow was harvested from either 4-week-old (young) or 6-month-old (old) Balb/C mice. Cells were isolated and cultured in DC maturation cocktail ([…], […], ±250 uM L-fucose) for 96 hours. At 96 hours the cells were treated with 10 ug/ml LPS for 24 hours after which the cells were harvested, and the RNA was extracted. RT-qPCR was performed. Data represents fold change of indicated genes normalized to values of young mice. N=3 mice per age group.

[2] = test system: PD-L1 on WM793, SW1 and SM1 cells; experiment: Cell surface PD-L1 (flow cytometry); type: cell-based; details: human or mouse melanoma cells, 250 μM
Text: FIGS. 22A-221 show Schematic of L-PLA staining and verification of fucosylated HLA-DRB1 staining, which is weakly associated with tumor peripheral CD4+T cells; and the effects of L-fucose on tumor PD-L1 expression (a) Schematic of lectin-mediated proximity ligation analysis (L-PLA) using fucosylated HLA-DRB1 (fuco-HLA-DRB1) as an example. We stained for (i) HLA-DRB1 using […]-HLA-DRB1 followed by (+) oligo-conjugated PLA secondary and (ii) fucosylated glycan using biotinylated (“B”) AAL lectin followed by D-biotin followed by (−) oligo-conjugated PLA secondary. Ligated PLA oligos were subjected to rolling circle amplification PCR (RCA PCR), giving rise to fluorescent punctae. […] Single melanoma marker, AAL-FITC, and HLA-DRB1 channels are shown in white for clearer visualization. […] (d) FFPE melanoma tissues were subjected to L-PLA HLA-DRB1 staining ±500 mM L-fucose wash and subsequent staining with melanoma marker (MART1+SI10 cocktail), and DAPI. Single melanoma marker and fuco-HLA-DRB1 channels are shown in white for clear visualization. […]
HLA-DRB1, and PD-L1: Indicated cells were treated for 72 h with DMSO, 250 μM fucosyltransferase inhibitor (FUTi) (Millipore Sigma (St. Louis, MO)), or 250 μM of L-fucose (Biosynth (Oak Terrace, IL)). […] Samples were analyzed using FlowJo analysis software (BD Biosciences (San Jose, CA)). […]

mouse melanoma tumors = experiment: Earlier mouse melanoma model with dietary fucose supplementation or FUK overexpression (tumor growth, CD45 and DX5 staining); type: in vivo
Procedure: To determine whether dietary or genetic modulation of fucosylation affects tumor growth and metastasis, we previously studied a mouse melanoma model in which tumor fucosylation was increased either by dietary supplementation (FIG. 2A) with 100 mM fucose or by overexpressing mouse FUK (FIG. 2B). […] To determine whether fucosylation affects tumor infiltration by immune cells, Immunofluorescent staining analysis of CD45 (general leukocyte marker, red) and DAPI (blue) was performed (FIG. 2C). To determine whether fucosylation affects tumor infiltration by NK cells, immunofluorescent staining analysis for DX5 (an NK cell marker, red) and DAPI (blue) was performed (FIG. 2D). Both NK cells and CD4+ T cells were elevated in samples from fucose supplemented mice.

Structure (SMILES): C[C@H](O)[C@@H](O)[C@@H](O)[C@H](O)C=O [L-fucose]
- L-fuc-triggered tumor suppression and induction of total itICs ([1]; EB1 knockdown): completely abolished
- control (shNT) tumor growth ([1]; non-targeting shRNA SW1 tumors): impaired
- L-fuc-induced TIL and tumor growth suppression after EB1 knockdown and reconstitution ([1]; shEB1 tumors reconstituted with EB1 WT or N46G): rescued by reconstitution with only WT but not glyco-fucomutant EB1
- TLR profiles of dendritic cells (dendritic cells): alters
- cell surface levels of PD-L1 [2]: does not alter
- block of tumor growth and metastasis (mouse melanoma tumors; dietary L-fucose supplementation, mouse models): > 50%
- tumor suppression (mouse melanoma tumors; dietary supplementation with 100 mM fucose (FIG. 2A)): increased tumor suppression
- NK cells and CD4+ T cells in tumor samples (mouse melanoma tumors; fucose supplemented mice (FIG. 2C, 2D)): elevated
